Test results as given in US9302999B2, “Substituted triazoles as herbicides” (E. I. DU PONT DE NEMOURS AND COMPANY, priority 2012, dated 2016).

What was measured:
Assay type in all cases: in vivo
[1] = test system: crabgrass, Brazil (Brazilian crabgrass, Digitaria horizontalis); test: Test F pre-/postemergence: crabgrass, Brazil
Excerpt: (§1) Seeds of plant species selected from corn (Zea mays), soybean (Glycine max), velvetleaf (Abutilon theophrasti), lambsquarters (Chenopodium album), poinsettia, wild (wild poinsettia, Euphorbia heterophylla), pigweed, palmer (palmer pigweed, Amaranthus palmeri), waterhemp (common waterhemp, Amaranthus rudis), surinam grass (Brachiaria decumbens), crabgrass, Brazil (Brazilian crabgrass, Digitaria horizontalis), panicum, fall (fall panicum Panicum dichotomiflorum), crabgrass, large (large crabgrass, Digitaria sanguinalis), foxtail, giant (giant foxtail, Setaria faberii), foxtail, green (green foxtail Setaria viridis), goosegrass (Eleusine indica), ragweed (common ragweed, Ambrosia elatior), barnyardgrass (Echinochloa crus-galli), sandbur (southern sandbur, Cenchrus echinatus), arrowleaf sida (Sida rhombifolia), ryegrass, Italian (Italian ryegrass, Lolium multiflorum), dayflower, VA (Virginia (VA) dayflower, Commelina virginica), field bindweed (Convolvulus arvensis), cocklebur (common cocklebur, Xanthium strumarium), morningglory (Ipomoea coccinea), nightshade (eastern black nightshade, Solanum ptycanthum), kochia (Kochia scoparia), nutsedge, yellow (yellow nutsedge, Cyperus esculentus), johnsongrass (Sorghum halepense), smartweed (ladysthumb smartweed, Polygonum persicaria), and beggarticks (hairy beggarticks, Bidens pilosa), were planted into a silt loam soil and treated preemergence with test chemicals formulated in a non-phytotoxic solvent mixture which included a surfactant. At the same time, plants selected from these crop and weed species and also pigweed (Amaranthus retroflexus), waterhemp_RES1 (ALS/Triazine resistant common waterhemp, Amaranthus rudis) and waterhemp_RES2 (ALS/HPPD resistant common waterhemp, Amaranthus rudis) were planted in pots containing a planting medium comprising spaghnum peat moss, vermiculite, wetting agent and starter nutrients treated with postemergence applications of some of the test chemicals formulated in the same manner. Plants ranged in height from 2 to 18 cm for postemergence treatments (1- to 4-leaf stage).
(§2) Treated plants and controls were maintained in a greenhouse for 14 to 21 days, after which time all species were compared to controls and visually evaluated. Plant response ratings, summarized in Table E, are based on a scale of 0 to 100 where 0 is no effect and 100 is complete control. A dash (-) response means no test result.

[2] = test system: arrowleaf sida (Sida rhombifolia); test: Test F pre-/postemergence: arrowleaf sida
Excerpt: as §1, §2

Waterhemp = test: Test C pre-/postemergence: waterhemp
Excerpt: Seeds of plant species selected from blackgrass (Alopecurus myosuroides), bromegrass, downy (downy bromegrass, Bromus tectorum), foxtail, green (green foxtail, Setaria viridis), ryegrass, Italian (Italian ryegrass, Lolium multiflorum), winter wheat (Triticum aestivum), wild oat (Avena fatua), galium (catchweed bedstraw, Galium aparine), bermudagrass (Cynodon dactylon), surinam grass (Brachiaria decumbens), cocklebur (common cocklebur, Xanthium strumarium), corn (Zea mays), large crabgrass (Digitaria sanguinalis), woolly cupgrass (Eriochloa villosa), foxtail, giant (giant foxtail, Setaria faberii), goosegrass (Eleusine indica), johnsongrass (Sorghum halepense), kochia (Kochia scoparia), lambsquarters (Chenopodium album), morningglory (Ipomoea coccinea), nightshade (eastern black nightshade, Solanum ptycanthum), nutsedge, yellow (yellow nutsedge, Cyperus esculentus), pigweed (Amaranthus retroflexus), ragweed (common ragweed, Ambrosia elation), soybean (Glycine max), common (oilseed) sunflower (Helianthus annuus), Russian thistle (Salsola kali) and velvetleaf (Abutilon theophrasti) were planted into a blend of loam soil and sand and treated preemergence with test chemicals formulated in a non-phytotoxic solvent mixture which included a surfactant.
At the same time, plants selected from these crop and weed species and also barley (winter barley, Hordeum vulgare), canarygrass (Phalaris minor), chickweed (common chickweed, Stellaria media) windgrass (Apera spica-venti) and deadnettle (henbit deadnettle, Lamium amplexicaule) were planted in pots containing Redi-Earth® planting medium (Scotts Company, 14111 Scottslawn Road, Marysville, Ohio 43041) comprising spaghnum peat moss, vermiculite, wetting agent and starter nutrients and treated with postemergence applications of test chemicals formulated in the same manner. Plants ranged in height from 2 to 18 cm (1- to 4-leaf stage) for postemergence treatments.
as §2, with “13” for “14”, “15” for “21”, “C,” for “E,”

[3] = test system: poinsettia, wild (wild poinsettia, Euphorbia heterophylla); test: Test E pre-/postemergence: poinsettia, wild; details: scale 0 to 100
Excerpt: (§3) Seeds of plant species selected from corn (Zea mays), soybean (Glycine max), velvetleaf (Abutilon theophrasti), lambsquarters (Chenopodium album), poinsettia, wild (wild poinsettia, Euphorbia heterophylla), pigweed, palmer (palmer pigweed, Amaranthus palmeri), waterhemp (common waterhemp, Amaranthus rudis), smartweed (ladysthumb smartweed, Polygonum persicaria), surinam grass (Brachiaria decumbens), crabgrass, large (large crabgrass, Digitaria sanguinalis), crabgrass, Brazil (Brazilian crabgrass, Digitaria horizontalis), panicum, fall (fall panicum, Panicum dichotomiflorum), foxtail, giant (giant foxtail, Setaria faberii), foxtail, green (green foxtail, Setaria viridis), goosegrass (Eleusine indica), johnsongrass (Sorghum halepense), ragweed (common ragweed, Ambrosia elation), barnyardgrass (Echinochloa crus-galli), sandbur (southern sandbur, Cenchrus echinatus), arrowleaf sida (Sida rhombifolia), ryegrass, Italian (Italian ryegrass, Lolium multiflorum), dayflower, (VA) (Virginia dayflower, Commelina virginica), field bindweed (Convolvulus arvensis), cocklebur (common cocklebur, Xanthium strumarium), morningglory (Ipomoea coccinea), nightshade (eastern black nightshade, Solanum ptycanthum), kochia (Kochia scoparia), nutsedge, yellow (yellow nutsedge, Cyperus esculentus) and beggarticks (hairy beggarticks, Bidens pilosa) were planted into a silt loam soil and treated preemergence with test chemicals formulated in a non-phytotoxic solvent mixture which included a surfactant. At the same time, plants selected from these crop and weed species were planted in pots containing a growing medium comprising spaghnum peat moss, vermiculite, wetting agent and starter nutrients and treated with postemergence applications of some of the test chemicals formulated in the same manner. Plants ranged in height from 2 to 18 cm for postemergence treatments (1- to 4-leaf stage).
as §2

[4] = test system: sandbur (southern sandbur, Cenchrus echinatus); test: Test E pre-/postemergence: sandbur; details: scale 0 to 100
Excerpt: as §3, §2

[5] = test system: nutsedge, yellow (yellow nutsedge, Cyperus esculentus); test: Test E pre-/postemergence: nutsedge, yellow; details: Preemergence, scale 0 to 100
Excerpt: as §3, §2

[6] = Postemergence, 4 g ai/ha, scale 0 to 100
[7] = Postemergence, 8 g ai/ha, scale 0 to 100
[8] = Postemergence, 16 g ai/ha, scale 0 to 100
[9] = Postemergence, 31 g ai/ha, scale 0 to 100
[10] = Postemergence, 62 g ai/ha, scale 0 to 100
[11] = Preemergence, 4 g ai/ha, scale 0 to 100, 0 no effect, 100 complete control
[12] = Preemergence, 8 g ai/ha, scale 0 to 100, 0 no effect, 100 complete control
[13] = Preemergence, 16 g ai/ha, scale 0 to 100 (0 no effect, 100 complete control)
[14] = Preemergence, 31 g ai/ha, scale 0 to 100 (0 no effect, 100 complete control)
[15] = Preemergence, 62 g ai/ha, scale 0 to 100
[16] = Postemergence, 125 g ai/ha, scale 0 to 100

Cc1nn(-c2ccc(C(F)(F)F)c(F)c2)nc1Cc1ccnc(C(F)(F)F)c1 [Compound 162]
Plant response rating, Crabgrass, Brazil [1, 6]: 15 | Plant response rating, Crabgrass, Brazil [1, 7]: 15 | Plant response rating, Crabgrass, Brazil [1, 8]: 15 | Plant response rating, Crabgrass, Brazil [1, 9]: 20 | Plant response rating, Crabgrass, Brazil [1, 10]: 30 | Plant response rating, Crabgrass, Brazil [1, 11]: 0 | Plant response rating, Crabgrass, Brazil [1, 12]: 100 | Plant response rating, Crabgrass, Brazil [1, 13]: 100 | Plant response rating, Crabgrass, Brazil [1, 14]: 100 | Plant response rating, Crabgrass, Brazil [1, 15]: 100 | Plant response rating, Arrowleaf Sida [2, 6]: 10 | Plant response rating, Arrowleaf Sida [2, 7]: 25 | Plant response rating, Arrowleaf Sida [2, 8]: 30 | Plant response rating, Arrowleaf Sida [2, 9]: 35 | Plant response rating, Arrowleaf Sida [2, 10]: 60 | Plant response rating, Arrowleaf Sida [2, 11]: 0 | Plant response rating, Arrowleaf Sida [2, 12]: 0 | Plant response rating, Arrowleaf Sida [2, 13]: 0 | Plant response rating, Arrowleaf Sida [2, 14]: 0 | Plant response rating, Arrowleaf Sida [2, 15]: 0 | Plant response rating, Waterhemp (Waterhemp; Preemergence, 250 g ai/ha, scale 0 to 100, 0 no effect, 100 complete control): 100

Cc1nn(-c2ccc(F)c(F)c2)nc1Oc1ccnc(C(F)(F)F)c1 [Compound 145]
Plant response rating, Crabgrass, Brazil [1, 7]: 15 | Plant response rating, Crabgrass, Brazil [1, 8]: 25 | Plant response rating, Crabgrass, Brazil [1, 9]: 40 | Plant response rating, Crabgrass, Brazil [1, 10]: 40 | Plant response rating, Crabgrass, Brazil [1, 16]: 50 | Plant response rating, Arrowleaf Sida [2, 7]: 30 | Plant response rating, Arrowleaf Sida [2, 8]: 40 | Plant response rating, Arrowleaf Sida [2, 9]: 50 | Plant response rating, Arrowleaf Sida [2, 10]: 60 | Plant response rating, Arrowleaf Sida [2, 16]: 70

Cc1nn(-c2ccc(C(F)(F)F)cc2)nc1Cc1ccnc(C(F)(F)F)c1 [Compound 47, 4-[[5-methyl-2-[4-(trifluoromethyl)phenyl]-2H-1,2,3-triazol-4-yl]methyl]-2-(trifluoromethyl)pyridine]
Plant response rating: Poinsettia, Wild ([3]; Postemergence, 250 g ai/ha): 100 | Plant response rating: Poinsettia, Wild ([3]; Postemergence, 16 g ai/ha): 75 | Plant response rating: Poinsettia, Wild ([3]; Postemergence, 31 g ai/ha): 75 | Plant response rating: Poinsettia, Wild ([3]; Postemergence, 62 g ai/ha): 90 | Plant response rating: Poinsettia, Wild ([3]; Postemergence, 125 g ai/ha): 98 | Plant response rating: Poinsettia, Wild ([3]; Preemergence, 16 g ai/ha): 0 | Plant response rating: Poinsettia, Wild ([3]; Preemergence, 31 g ai/ha): 25 | Plant response rating: Poinsettia, Wild ([3]; Preemergence, 62 g ai/ha): 40 | Plant response rating: Poinsettia, Wild ([3]; Preemergence, 125 g ai/ha): 65 | Plant response rating: Poinsettia, Wild ([3]; Preemergence, 250 g ai/ha): 100 | Plant response rating: Sandbur ([4]; Postemergence, 250 g ai/ha): 50 | Plant response rating: Sandbur ([4]; Postemergence, 16 g ai/ha): 20 | Plant response rating: Sandbur ([4]; Postemergence, 31 g ai/ha): 25 | Plant response rating: Sandbur ([4]; Postemergence, 62 g ai/ha): 25 | Plant response rating: Sandbur ([4]; Postemergence, 125 g ai/ha): 30 | Plant response rating: Sandbur ([4]; Preemergence, 16 g ai/ha): 0 | Plant response rating: Sandbur ([4]; Preemergence, 31 g ai/ha): 20 | Plant response rating: Sandbur ([4]; Preemergence, 62 g ai/ha): 90 | Plant response rating: Sandbur ([4]; Preemergence, 250 g ai/ha): 100 | Plant response rating: Nutsedge, Yellow ([5]; 16 g ai/ha): 0 | Plant response rating: Nutsedge, Yellow ([5]; 31 g ai/ha): 0 | Plant response rating: Nutsedge, Yellow ([5]; 62 g ai/ha): 10 | Plant response rating: Nutsedge, Yellow ([5]; 125 g ai/ha): 10 | Plant response rating: Nutsedge, Yellow ([5]; 250 g ai/ha): 35

CCc1nn(-c2ccc(F)cc2)nc1Oc1ccnc(C(F)(F)F)c1 [Compound 166]
Plant response rating, Waterhemp (Waterhemp; Postemergence, 31 g ai/ha, scale 0 to 100 (0 no effect, 100 complete control)): 90

Fc1ccc(-n2nc(Cc3ccnc(C(F)(F)F)c3)c(OCC(F)(F)F)n2)cc1 [Compound 142]
Plant response rating, Arrowleaf Sida [2, 13]: 0 | Plant response rating, Arrowleaf Sida [2, 14]: 30 | Plant response rating, Arrowleaf Sida [2, 15]: 30 | Plant response rating, Arrowleaf Sida ([2]; Preemergence, 125 g ai/ha, scale 0 to 100): 35
